Data taken from ChEMBL document CHEMBL5154766, “Synthesis, bioevaluation and molecular dynamics of pyrrolo-pyridine benzamide derivatives as potential antitumor agents in vitro and in vivo” (Eur J Med Chem, 2022).
Blank lines part the entries; values can stand above or below the molecule they belong to. The source made the active and inactive calls. The rule behind the calls is not given here.

What was measured:
A549 [1] = experiment: Antiproliferative activity against human A549 cells expressing c-Met after 48 hrs by MTT assay; type: functional, cell-based; settings: A549, 48 h
HeLa = experiment: Antiproliferative activity against human HeLa cells expressing c-Met after 48 hrs by MTT assay; type: functional, cell-based
MCF7 = experiment: Antiproliferative activity against human MCF7 cells expressing c-Met after 48 hrs by MTT assay; type: functional, cell-based; settings: MCF7, 48 h
A549 [2] = experiment: Induction of apoptosis in human A549 cells assessed as late apoptotic cells at 5 uM measured after 24 hrs by PI/Annexin V staining based flow cytometry assay (reference value: 4.49%); type: functional
A549 [3] = experiment: Induction of apoptosis in human A549 cells assessed as early apoptotic cells at 5 uM measured after 24 hrs by PI/Annexin V staining based flow cytometry assay (reference value: 2.5%); type: functional
A549 [4] = experiment: Induction of cell cycle arrest in human A549 cells assessed as accumulation at G0/G1 phase at 5 uM measured by flow cytometry (reference value: 57.68%); type: functional
A549 [5] = experiment: Induction of cell cycle arrest in human A549 cells assessed as accumulation at G2/M phase at 5 uM measured by flow cytometry (reference value: 7.98%); type: functional
A549 [6] = experiment: Induction of cell cycle arrest in human A549 cells assessed as accumulation at S phase at 5 uM measured by flow cytometry (reference value: 34.34%); type: functional
A549 [7] = experiment: Antitumor activity against human A549 cells xenografted in BALB/c nude mouse assessed as tumor growth inhibition at 20 mg/kg, ip administered every two days for 18 days; type: functional; settings: A549, 432 h, time 18 day, read-out: TGI
A549 [8] = experiment: Antitumor activity against human A549 cells xenografted in BALB/c nude mouse assessed as reduction in Ki67 expression at 20 mg/kg, ip administered every two days for 18 days by immunohistochemistry; type: functional, organism-based; settings: time 18.0 day
[9] = Toxicity in BALB/c nude mouse xenografted with human A549 cells assessed as effect on body weight at 20 mg/kg, ip administered every two days for 18 days; type: organism-based; settings: in vivo, 432 h, time 18 day
[10] = Toxicity in BALB/c nude mouse xenografted with human A549 cells assessed as effect on kidney at 20 mg/kg, ip administered every two days for 18 days by H and E staining method; type: organism-based; settings: in vivo, 432 h, time 18 day
[11] = Toxicity in BALB/c nude mouse xenografted with human A549 cells assessed as effect on heart at 20 mg/kg, ip administered every two days for 18 days by H and E staining method; type: organism-based; settings: in vivo, 432 h, time 18 day
[12] = Toxicity in BALB/c nude mouse xenografted with human A549 cells assessed as effect on liver at 20 mg/kg, ip administered every two days for 18 days by H and E staining method; type: organism-based; settings: in vivo, 432 h, time 18 day
A549 [13] = experiment: Induction of apoptosis in human A549 cells assessed as cytoplasmic shrinkage at 1 to 5 uM measured after 12 hrs by Acridine orange staining method; type: functional, cell-based; settings: dose 1-5 µM
A549 [14] = experiment: Induction of apoptosis in human A549 cells assessed as membrane swelling at 1 to 5 uM measured after 12 hrs by Acridine orange staining method; type: functional, cell-based; settings: dose 1-5 µM
A549 [15] = experiment: Induction of apoptosis in human A549 cells assessed as cell fragment formation at 1 to 5 uM measured after 12 hrs by Acridine orange staining method; type: functional, cell-based; settings: dose 1-5 µM
A549 [16] = experiment: Induction of apoptosis in human A549 cells assessed as apoptotic bodies formation at 1 to 5 uM measured after 12 hrs by Acridine orange staining method; type: functional, cell-based; settings: dose 1-5 µM
A549 [17] = experiment: Induction of apoptosis in human A549 cells assessed as increase in chromatin contraction at 1 to 5 uM measured after 12 hrs by Acridine orange staining method; type: functional, cell-based; settings: dose 1-5 µM
A549 [18] = experiment: Induction of apoptosis in human A549 cells assessed as late apoptotic cells at 2.5 uM measured after 24 hrs by PI/Annexin V staining based flow cytometry assay (reference value: 4.49%); type: functional
A549 [19] = experiment: Induction of apoptosis in human A549 cells assessed as early apoptotic cells at 2.5 uM measured after 24 hrs by PI/Annexin V staining based flow cytometry assay (reference value: 2.5%); type: functional
A549 [20] = experiment: Induction of apoptosis in human A549 cells assessed as late apoptotic cells at 10 uM measured after 24 hrs by PI/Annexin V staining based flow cytometry assay (reference value: 4.49%); type: functional
A549 [21] = experiment: Induction of apoptosis in human A549 cells assessed as early apoptotic cells at 10 uM measured after 24 hrs by PI/Annexin V staining based flow cytometry assay (reference value: 2.5%); type: functional
A549 [22] = experiment: Induction of cell cycle arrest in human A549 cells assessed as accumulation at G0/G1 phase at 2.5 uM measured by flow cytometry (reference value: 57.68%); type: functional
A549 [23] = experiment: Induction of cell cycle arrest in human A549 cells assessed as accumulation at G2/M phase at 2.5 uM measured by flow cytometry (reference value: 7.98%); type: functional
A549 [24] = experiment: Induction of cell cycle arrest in human A549 cells assessed as accumulation at S phase at 2.5 uM measured by flow cytometry (reference value: 34.34%); type: functional
A549 [25] = experiment: Induction of cell cycle arrest in human A549 cells assessed as accumulation at G0/G1 phase at 10 uM measured by flow cytometry (reference value: 57.68%); type: functional
A549 [26] = experiment: Induction of cell cycle arrest in human A549 cells assessed as accumulation at G2/M phase at 10 uM measured by flow cytometry (reference value: 7.98%); type: functional
A549 [27] = experiment: Induction of cell cycle arrest in human A549 cells assessed as accumulation at S phase at 10 uM measured by flow cytometry (reference value: 34.34%); type: functional
A549 [28] = experiment: Downregulation of c-Met expression in human A549 cells at 5 to 10 uM measured by fluorescence quantitative PCR analysis; type: functional, cell-based; settings: dose 5-10 µM

IC50 (A549 [1]): 8.39 µM
IC50 (HeLa): 49.3 µM
IC50 (MCF7): 30.8 µM
Compound: O=C(Nc1ccc(Oc2ccnc3[nH]ccc23)cc1)c1cn(-c2ccc(Br)cc2)c2ncccc2c1=O

IC50 (HeLa): 50.3 µM
Compound: O=C(Nc1ccc(Oc2ccnc3[nH]ccc23)cc1)c1cn(-c2ccc(C(F)(F)F)cc2Cl)c2ncccc2c1=O

IC50 (A549 [1]): 9.71 µM
IC50 (HeLa): 53.1 µM
IC50 (MCF7): 12 µM
Compound: O=C(Nc1ccc(Oc2ccnc3[nH]ccc23)c(F)c1)c1cn(-c2ccc(F)c(Cl)c2)c2ncccc2c1=O

IC50 (A549 [1]): 10.8 µM
IC50 (HeLa): 50.2 µM
IC50 (MCF7): 29.1 µM
Compound: Cn1ccc2c(Oc3ccc(NC(=O)c4cn(-c5ccc(Br)cc5)c5ncccc5c4=O)cc3)ccnc21

IC50 (A549 [1]): 18.2 µM
IC50 (HeLa): 80 µM
IC50 (MCF7): 46.7 µM
Compound: O=C(Nc1ccc(Oc2ccnc3[nH]ccc23)cc1)c1cn(-c2ccccc2)c2ncccc2c1=O

IC50 (A549 [1]): 30.6 µM
IC50 (MCF7): 44.9 µM
Compound: COc1ccc(-n2cc(C(=O)Nc3ccc(Oc4ccnc5c4ccn5C)cc3)c(=O)c3cccnc32)cc1

IC50 (A549 [1]): 26 µM
IC50 (HeLa): 95.4 µM
IC50 (MCF7): 47.2 µM
Compound: COc1ccc(-n2cc(C(=O)Nc3ccc(Oc4ccnc5[nH]ccc45)cc3)c(=O)c3cccnc32)cc1

IC50 (A549 [1]): 5.29 µM
Compound: O=C(Nc1ccc(Oc2ccnc3[nH]ccc23)c(F)c1)c1cn(-c2ccc(Cl)cc2)c2ncccc2c1=O

IC50 (A549 [1]): 16.9 µM
IC50 (MCF7): 14.8 µM
Compound: Cn1ccc2c(Oc3ccc(NC(=O)c4cn(-c5ccccc5)c5ncccc5c4=O)cc3F)ccnc21

IC50 (A549 [1]): 6.51 µM
IC50 (HeLa): 29.3 µM
IC50 (MCF7): 13 µM
Compound: O=C(Nc1ccc(Oc2ccnc3[nH]ccc23)c(F)c1)c1cn(-c2ccccc2)c2ncccc2c1=O

IC50 (HeLa): 53.3 µM
Compound: O=C(Nc1ccc(Oc2ccnc3[nH]ccc23)cc1)c1cn(-c2ccc(Cl)cc2)c2ncccc2c1=O

IC50 (A549 [1]): 6.42 µM
IC50 (HeLa): 14.9 µM
IC50 (MCF7): 7.16 µM
Compound: O=C(Nc1ccc(Oc2ccnc3[nH]ccc23)c(F)c1)c1cn(-c2ccc(F)cc2)c2ncccc2c1=O

IC50 (HeLa): 80.3 µM
Compound: Cn1ccc2c(Oc3ccc(NC(=O)c4cn(-c5ccc(C(F)(F)F)cc5Cl)c5ncccc5c4=O)cc3)ccnc21

IC50 (A549 [1]): 28.7 µM
Compound: Cn1ccc2c(Oc3ccc(NC(=O)c4cn(-c5ccc(Br)cc5F)c5ncccc5c4=O)cc3)ccnc21

IC50 (A549 [1]): 22.3 µM
IC50 (HeLa): 77 µM
IC50 (MCF7): 13.1 µM
Compound: Cn1ccc2c(Oc3ccc(NC(=O)c4cn(-c5ccccc5)c5ncccc5c4=O)cc3)ccnc21

IC50 (A549 [1]): 9.62 µM
IC50 (HeLa): 86 µM
Compound: O=C(Nc1ccc(Oc2ccnc3[nH]ccc23)cc1)c1cn(-c2ccc(F)cc2)c2ncccc2c1=O

IC50 (A549 [1]): 15.3 µM
IC50 (HeLa): 63 µM
Compound: Cn1ccc2c(Oc3ccc(NC(=O)c4cn(-c5ccc(Cl)cc5)c5ncccc5c4=O)cc3)ccnc21

IC50 (A549 [1]): 20.1 µM
IC50 (MCF7): 55.6 µM
Compound: O=C(Nc1ccc(Oc2ccnc3[nH]ccc23)c(F)c1)c1cn(-c2ccc(Br)cc2F)c2ncccc2c1=O

IC50 (A549 [1]): 7.23 µM
IC50 (HeLa): 19.9 µM
IC50 (MCF7): 1.18 µM
Compound: COc1ccc(-n2cc(C(=O)Nc3ccc(Oc4ccnc5[nH]ccc45)c(F)c3)c(=O)c3cccnc32)cc1

IC50 (A549 [1]): 0.33 µM
IC50 (HeLa): 79.1 µM
IC50 (MCF7): 30.9 µM
Compound: COc1cc2nccc(Oc3ccc(NC(=O)C4(C(=O)Nc5ccc(F)cc5)CC4)cc3)c2cc1OC [CABOZANTINIB]
Activity (A549 [2]): 6.89%
Activity (A549 [3]): 2.32%
Activity (A549 [4]): 69.22%
Activity (A549 [5]): 15.48%
Activity (A549 [6]): 15.31%
inhibition in vivo at 20 mg/kg (A549 [7]): 47.9%
Activity (A549 [8]): Active
Activity [9]: Non-Toxic
Activity [10]: Non-Toxic
Activity [11]: Non-Toxic
Activity [12]: Non-Toxic

IC50 (A549 [1]): 10.2 µM
IC50 (MCF7): 5.49 µM
Compound: Cn1ccc2c(Oc3ccc(NC(=O)c4cn(-c5ccc(Br)cc5)c5ncccc5c4=O)cc3F)ccnc21

IC50 (A549 [1]): 1.06 µM
IC50 (HeLa): 10.9 µM
IC50 (MCF7): 0.11 µM
Compound: O=C(Nc1ccc(Oc2ccnc3[nH]ccc23)c(F)c1)c1cn(-c2ccc(Br)cc2)c2ncccc2c1=O
Activity (A549 [13]): Active
Activity (A549 [14]): Active
Activity (A549 [15]): Active
Activity (A549 [16]): Active
Activity (A549 [17]): Active
Activity (A549 [18]): 5.58%
Activity (A549 [19]): 3.33%
Activity (A549 [2]): 8.13%
Activity (A549 [3]): 2.2%
Activity (A549 [20]): 12.69%
Activity (A549 [21]): 4%
Activity (A549 [22]): 58.72%
Activity (A549 [23]): 10.19%
Activity (A549 [24]): 31.09%
Activity (A549 [4]): 60.15%
Activity (A549 [5]): 13.01%
Activity (A549 [6]): 26.84%
Activity (A549 [25]): 69.22%
Activity (A549 [26]): 15.48%
Activity (A549 [27]): 15.31%
Activity (A549 [28]): Active
inhibition in vivo at 20 mg/kg (A549 [7]): 64.5%
Activity (A549 [8]): Active
Activity [9]: Non-Toxic
Activity [10]: Non-Toxic
Activity [11]: Non-Toxic
Activity [12]: Non-Toxic

IC50 (A549 [1]): 12.4 µM
IC50 (HeLa): 14.2 µM
IC50 (MCF7): 2.01 µM
Compound: O=C(Nc1ccc(Oc2ccnc3[nH]ccc23)cc1)c1cn(-c2ccc(F)c(Cl)c2)c2ncccc2c1=O

IC50 (A549 [1]): 9.15 µM
IC50 (HeLa): 27.8 µM
IC50 (MCF7): 13 µM
Compound: O=C(Nc1ccc(Oc2ccnc3[nH]ccc23)c(F)c1)c1cn(-c2ccc(C(F)(F)F)cc2Cl)c2ncccc2c1=O

IC50 (A549 [1]): 16.8 µM
IC50 (HeLa): 76.6 µM
Compound: Cn1ccc2c(Oc3ccc(NC(=O)c4cn(-c5ccc(F)cc5)c5ncccc5c4=O)cc3)ccnc21

IC50 (A549 [1]): 22.7 µM
Compound: O=C(Nc1ccc(Oc2ccnc3[nH]ccc23)cc1)c1cn(-c2ccc(Br)cc2F)c2ncccc2c1=O

IC50 (A549 [1]): 15.1 µM
IC50 (MCF7): 48.6 µM
Compound: Cn1ccc2c(Oc3ccc(NC(=O)c4cn(-c5ccc(F)c(Cl)c5)c5ncccc5c4=O)cc3)ccnc21

IC50 (A549 [1]): 29.9 µM
IC50 (HeLa): 61.2 µM
Compound: Cn1ccc2c(Oc3ccc(NC(=O)c4cn(-c5ccc(Br)cc5F)c5ncccc5c4=O)cc3F)ccnc21
